In ChEMBL document CHEMBL3351950, “Synthesis of genistein coupled with sugar derivatives and their inhibitory effect on nitric oxide production in macrophages” (Eur J Med Chem, 2014):
Activity calls are given as the source filed them. No cut-off for these calls is given here.

What was measured:
[1] = Cytotoxicity against LPS/IFNgamma-stimulated mouse RAW264.7 cells assessed as cell viability at 26 uM after 48 hrs by MTT method (reference value: 100 +/- 1.8%); format: cell-based; details: LPS/IFNgamma-stimulated RAW264.7 cells, read-out: Activity
J774.A1 [2] = assay: Inhibition of TNFalpha production in LPS/IFNgamma-stimulated mouse J774A1 cells assessed as TNFalpha level at 6.5 uM by ELISA method (reference value: 89.2 +/- 17.1 pg/mL); format: functional
RAW264.7 [3] = assay: Inhibition of TNFalpha production in LPS/IFNgamma-stimulated mouse RAW264.7 cells assessed as TNFalpha level at 6.5 uM by ELISA method; format: functional, cell-based
J774.A1 [4] = assay: Inhibition of nitric oxide production in LPS/IFNgamma-stimulated mouse J774A1 cells assessed as nitrites level at 13 uM by Griess method (reference value: 16.5 +/- 1.4 uM); format: functional
J774.A1 [5] = assay: Inhibition of nitric oxide production in LPS/IFNgamma-stimulated mouse J774A1 cells assessed as nitrites level at 6.5 uM by Griess method (reference value: 16.5 +/- 1.4 uM); format: functional
J774.A1 [6] = assay: Inhibition of nitric oxide production in LPS/IFNgamma-stimulated mouse J774A1 cells assessed as nitrites level at 26 uM by Griess method (reference value: 16.5 +/- 1.4 uM); format: functional
[7] = Cytotoxicity against LPS/IFNgamma-stimulated mouse J774A1 cells assessed as cell viability at 6.5 uM after 48 hrs by MTT method (reference value: 100 +/- 1.1%); format: cell-based, J774.A1; details: read-out: Activity
[8] = Cytotoxicity against LPS/IFNgamma-stimulated mouse J774A1 cells assessed as cell viability at 13 uM after 48 hrs by MTT method (reference value: 100 +/- 1.1%); format: cell-based, J774.A1; details: read-out: Activity
[9] = Cytotoxicity against LPS/IFNgamma-stimulated mouse J774A1 cells assessed as cell viability at 26 uM after 48 hrs by MTT method (reference value: 100 +/- 1.1%); format: cell-based, J774.A1; details: read-out: Activity
RAW264.7 [10] = assay: Inhibition of nitric oxide production in LPS/IFNgamma-stimulated mouse RAW264.7 cells assessed as nitrites level at 6.5 uM by Griess method (reference value: 6.4 +/- 0.5 uM); format: functional
RAW264.7 [11] = assay: Inhibition of nitric oxide production in LPS/IFNgamma-stimulated mouse RAW264.7 cells assessed as nitrites level at 13 uM by Griess method (reference value: 6.4 +/- 0.5 uM); format: functional
RAW264.7 [12] = assay: Inhibition of nitric oxide production in LPS/IFNgamma-stimulated mouse RAW264.7 cells assessed as nitrites level at 26 uM by Griess method (reference value: 6.4 +/- 0.5 uM); format: functional
[13] = Cytotoxicity against LPS/IFNgamma-stimulated mouse RAW264.7 cells assessed as cell viability at 6.5 uM after 48 hrs by MTT method (reference value: 100 +/- 1.8%); format: cell-based; details: LPS/IFNgamma-stimulated RAW264.7 cells, read-out: Activity
[14] = Cytotoxicity against LPS/IFNgamma-stimulated mouse RAW264.7 cells assessed as cell viability at 13 uM after 48 hrs by MTT method (reference value: 100 +/- 1.8%); format: cell-based; details: LPS/IFNgamma-stimulated RAW264.7 cells, read-out: Activity

In the case of CO[C@H]1O[C@H](COc2cc(O)c3c(=O)c(-c4ccc(O)cc4)coc3c2)[C@@H](O)[C@H](O)[C@H]1O, the viability at 48 h, 26 µM [1] is reported as 78.3%, the inhibition (J774.A1 [2]) is reported as “inactive” and the inhibition (RAW264.7 [3]) is reported as “inactive”. It also gave an Activity (J774.A1 [4]) of 11.3 µM, an Activity (J774.A1 [5]) of 7.2 µM and an Activity (J774.A1 [6]) of 14.3 µM. It also gave a viability at 48 h, 6.5 µM [7] of 68.1%, a viability at 48 h, 13 µM [8] of 64.3% and a viability at 48 h, 26 µM [9] of 44.9%. For the same compound, the Activity (RAW264.7 [10]) was 1.4 µM, the Activity (RAW264.7 [11]) was 1 µM and the Activity (RAW264.7 [12]) was 1.7 µM. For the same compound, the viability at 48 h, 6.5 µM [13] was 91.3% and the viability at 48 h, 13 µM [14] was 88.1%.
For CO[C@H]1O[C@H](COc2ccc(-c3coc4cc(OC[C@H]5O[C@H](OC)[C@H](O)[C@@H](O)[C@@H]5O)cc(O)c4c3=O)cc2)[C@@H](O)[C@H](O)[C@H]1O, the viability at 48 h, 26 µM [1] was 92.2%, the inhibition (J774.A1 [2]) was “inactive” and the inhibition (RAW264.7 [3]) was “inactive”. For the same compound, the Activity (J774.A1 [4]) was 9.1 µM, the Activity (J774.A1 [5]) was 8.7 µM and the Activity (J774.A1 [6]) was 8.5 µM. It also gave a viability at 48 h, 6.5 µM [7] of 99.9%, a viability at 48 h, 13 µM [8] of 96.6% and a viability at 48 h, 26 µM [9] of 94.8%. The Activity (RAW264.7 [10]) was 0 µM, the Activity (RAW264.7 [11]) was 0 µM and the Activity (RAW264.7 [12]) was 0 µM. For the same compound, the viability at 48 h, 6.5 µM [13] was 93.6% and the viability at 48 h, 13 µM [14] was 99.2%.
For O=c1c(-c2ccc(O)cc2)coc2cc(O)cc(O)c12 [GENISTEIN], the viability at 48 h, 26 µM [1] was 108%, the inhibition (J774.A1 [2]) was “inactive” and the Activity (J774.A1 [4]) was 13.8 µM. For the same compound, the Activity (J774.A1 [5]) was 13.4 µM, the Activity (J774.A1 [6]) was 14.5 µM and the viability at 48 h, 6.5 µM [7] was 112%. The viability at 48 h, 13 µM [8] was 104%, the viability at 48 h, 26 µM [9] was 110% and the Activity (RAW264.7 [10]) was 6.3 µM. It also gave an Activity (RAW264.7 [11]) of 6.3 µM, an Activity (RAW264.7 [12]) of 6.1 µM and a viability at 48 h, 6.5 µM [13] of 128%. It also gave a viability at 48 h, 13 µM [14] of 103%.
For CO[C@H]1O[C@H](COc2cc(O)c3c(=O)c(-c4ccc(O)cc4)coc3c2)[C@@H](OC(C)=O)[C@H](OC(C)=O)[C@H]1OC(C)=O, the viability at 48 h, 26 µM [1] was 103%, the Activity (J774.A1 [2]) was 51.7 pg/mL and the inhibition (RAW264.7 [3]) was “inactive”. For the same compound, the Activity (J774.A1 [4]) was 13.1 µM, the Activity (J774.A1 [5]) was 12.7 µM and the Activity (J774.A1 [6]) was 10.4 µM. For the same compound, the viability at 48 h, 6.5 µM [7] was 94.7%, the viability at 48 h, 13 µM [8] was 92.7% and the viability at 48 h, 26 µM [9] was 87.4%. The Activity (RAW264.7 [10]) was 2.1 µM, the Activity (RAW264.7 [11]) was 4.2 µM and the Activity (RAW264.7 [12]) was 2.4 µM. It also gave a viability at 48 h, 6.5 µM [13] of 103% and a viability at 48 h, 13 µM [14] of 104%.
For CC1(C)O[C@H]2[C@@H](O1)[C@@H](COc1ccc(-c3coc4cc(OC[C@H]5O[C@@H]6OC(C)(C)O[C@@H]6[C@H]6OC(C)(C)O[C@H]65)cc(O)c4c3=O)cc1)O[C@@H]1OC(C)(C)O[C@@H]12, the viability at 48 h, 26 µM [1] was 94.4%, the inhibition (J774.A1 [2]) was “inactive” and the inhibition (RAW264.7 [3]) was “inactive”. It also gave an Activity (J774.A1 [4]) of 11.8 µM, an Activity (J774.A1 [5]) of 9.8 µM and an Activity (J774.A1 [6]) of 12.3 µM. It also gave a viability at 48 h, 6.5 µM [7] of 89.7%, a viability at 48 h, 13 µM [8] of 87.3% and a viability at 48 h, 26 µM [9] of 83.6%. The Activity (RAW264.7 [10]) was 2.6 µM, the Activity (RAW264.7 [11]) was 2.7 µM and the Activity (RAW264.7 [12]) was 2.4 µM. For the same compound, the viability at 48 h, 6.5 µM [13] was 98.9% and the viability at 48 h, 13 µM [14] was 89.4%.
With CO[C@H]1O[C@H](COc2ccc(-c3coc4cc(OC[C@H]5O[C@H](OC)[C@H](OC(C)=O)[C@@H](OC(C)=O)[C@@H]5OC(C)=O)cc(O)c4c3=O)cc2)[C@@H](OC(C)=O)[C@H](OC(C)=O)[C@H]1OC(C)=O the viability at 48 h, 26 µM [1] was 101%, the Activity (J774.A1 [2]) was 51.9 pg/mL and the inhibition (RAW264.7 [3]) was “inactive”. The Activity (J774.A1 [4]) was 12.1 µM, the Activity (J774.A1 [5]) was 11.5 µM and the Activity (J774.A1 [6]) was 11.7 µM. The viability at 48 h, 6.5 µM [7] was 82.1%, the viability at 48 h, 13 µM [8] was 86.7% and the viability at 48 h, 26 µM [9] was 87.9%. The Activity (RAW264.7 [10]) was 1.9 µM, the Activity (RAW264.7 [11]) was 2.5 µM and the Activity (RAW264.7 [12]) was 4.1 µM. It also gave a viability at 48 h, 6.5 µM [13] of 103% and a viability at 48 h, 13 µM [14] of 98.4%.
For CC1(C)O[C@H]2[C@@H](O1)[C@@H](COc1cc(O)c3c(=O)c(-c4ccc(O)cc4)coc3c1)O[C@@H]1OC(C)(C)O[C@@H]12, the viability at 48 h, 26 µM [1] was 71.3%, the inhibition (J774.A1 [2]) was “inactive” and the inhibition (RAW264.7 [3]) was “inactive”. The Activity (J774.A1 [4]) was 12.8 µM, the Activity (J774.A1 [5]) was 17.7 µM and the Activity (J774.A1 [6]) was 0.7 µM. The viability at 48 h, 6.5 µM [7] was 102%, the viability at 48 h, 13 µM [8] was 85.5% and the viability at 48 h, 26 µM [9] was 30.3%. It also gave an Activity (RAW264.7 [10]) of 2.4 µM, an Activity (RAW264.7 [11]) of 2.5 µM and an Activity (RAW264.7 [12]) of 3.1 µM. For the same compound, the viability at 48 h, 6.5 µM [13] was 87.6% and the viability at 48 h, 13 µM [14] was 88.1%.
With O=c1c(-c2ccc(O)cc2)coc2cc(OC[C@H]3O[C@H](O)[C@H](O)[C@@H](O)[C@H]3O)cc(O)c12 the viability at 48 h, 26 µM [1] was 95.8%, the Activity (J774.A1 [2]) was 38.3 pg/mL and the inhibition (RAW264.7 [3]) was “inactive”. It also gave an Activity (J774.A1 [4]) of 10.9 µM, an Activity (J774.A1 [5]) of 9.7 µM and an Activity (J774.A1 [6]) of 9.1 µM. For the same compound, the viability at 48 h, 6.5 µM [7] was 93.6%, the viability at 48 h, 13 µM [8] was 95.2% and the viability at 48 h, 26 µM [9] was 88.9%. The Activity (RAW264.7 [10]) was 1.4 µM, the Activity (RAW264.7 [11]) was 0 µM and the Activity (RAW264.7 [12]) was 0 µM. For the same compound, the viability at 48 h, 6.5 µM [13] was 95.9% and the viability at 48 h, 13 µM [14] was 98.2%.
